# Molecular target: H1047R PIK3CA enzyme (Homo sapiens, UniProt P42336, H1047R)
# Assay: ADP-Glo Biochemical PIK3CA Kinase Assay
# Sequence of H1047R PIK3CA enzyme (P42336 whole entry H1047R): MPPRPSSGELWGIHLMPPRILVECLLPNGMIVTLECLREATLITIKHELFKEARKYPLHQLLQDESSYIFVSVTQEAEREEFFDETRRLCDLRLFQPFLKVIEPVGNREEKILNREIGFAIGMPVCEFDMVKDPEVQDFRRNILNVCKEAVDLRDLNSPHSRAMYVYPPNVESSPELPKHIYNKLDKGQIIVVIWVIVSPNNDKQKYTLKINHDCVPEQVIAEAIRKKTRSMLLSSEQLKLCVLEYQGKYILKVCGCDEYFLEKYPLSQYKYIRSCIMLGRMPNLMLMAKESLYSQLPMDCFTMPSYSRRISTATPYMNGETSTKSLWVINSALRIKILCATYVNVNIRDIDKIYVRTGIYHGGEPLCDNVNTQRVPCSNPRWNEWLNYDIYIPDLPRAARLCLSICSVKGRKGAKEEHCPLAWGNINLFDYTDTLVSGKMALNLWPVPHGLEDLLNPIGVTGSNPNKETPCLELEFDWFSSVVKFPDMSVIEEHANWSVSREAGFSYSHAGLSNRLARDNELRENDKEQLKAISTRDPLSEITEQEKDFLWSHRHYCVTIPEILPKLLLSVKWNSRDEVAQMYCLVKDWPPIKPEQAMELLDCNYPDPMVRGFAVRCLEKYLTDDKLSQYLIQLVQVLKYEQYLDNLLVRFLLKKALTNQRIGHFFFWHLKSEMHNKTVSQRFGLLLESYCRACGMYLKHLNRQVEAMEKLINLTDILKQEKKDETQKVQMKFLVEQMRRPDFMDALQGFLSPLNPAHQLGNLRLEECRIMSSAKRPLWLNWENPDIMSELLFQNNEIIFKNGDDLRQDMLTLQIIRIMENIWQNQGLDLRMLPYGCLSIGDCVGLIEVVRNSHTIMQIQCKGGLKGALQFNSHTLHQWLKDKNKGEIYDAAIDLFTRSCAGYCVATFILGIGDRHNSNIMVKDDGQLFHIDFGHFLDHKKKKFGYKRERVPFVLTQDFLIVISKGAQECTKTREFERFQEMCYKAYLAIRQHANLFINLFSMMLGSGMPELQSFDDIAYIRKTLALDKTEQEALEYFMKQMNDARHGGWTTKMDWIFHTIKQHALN
# Sequence of H1047R PIK3CA enzyme (P27986 whole entry partner): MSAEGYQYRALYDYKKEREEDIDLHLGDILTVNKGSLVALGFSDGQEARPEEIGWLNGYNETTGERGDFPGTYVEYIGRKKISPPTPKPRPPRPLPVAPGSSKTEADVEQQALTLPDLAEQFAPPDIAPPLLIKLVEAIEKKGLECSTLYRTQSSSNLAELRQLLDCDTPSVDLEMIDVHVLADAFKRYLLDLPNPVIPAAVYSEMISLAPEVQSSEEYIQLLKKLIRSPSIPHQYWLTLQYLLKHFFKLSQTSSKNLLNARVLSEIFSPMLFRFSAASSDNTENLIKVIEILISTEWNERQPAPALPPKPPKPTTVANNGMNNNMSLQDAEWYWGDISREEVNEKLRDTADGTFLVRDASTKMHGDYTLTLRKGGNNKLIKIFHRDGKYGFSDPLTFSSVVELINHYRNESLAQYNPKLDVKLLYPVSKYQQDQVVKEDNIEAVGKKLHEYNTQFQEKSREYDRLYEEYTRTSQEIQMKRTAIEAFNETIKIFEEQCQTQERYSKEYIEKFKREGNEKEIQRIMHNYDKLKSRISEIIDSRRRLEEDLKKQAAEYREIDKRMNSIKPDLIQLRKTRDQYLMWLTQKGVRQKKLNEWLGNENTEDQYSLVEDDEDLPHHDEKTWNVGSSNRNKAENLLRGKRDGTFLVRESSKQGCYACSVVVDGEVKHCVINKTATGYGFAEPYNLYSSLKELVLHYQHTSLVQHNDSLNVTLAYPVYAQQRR
row,SMILES,IC50 [µM]
1,CC(C)(O)COc1cc(NC(=O)c2cc(F)cc(Cl)c2)c2c(c1)C(=O)NC2c1cc(F)ccc1Cl (centres unmarked) [Compound I-819],≤ 0.1
2,"O=C1N[C@H](c2cc(F)ccc2Cl)c2c(NC(=O)N3C[C@](O)(C(F)F)c4cc(F)ccc43)cc(F)cc21 (single isomer, unassigned) [Compound I-2634]",1 to 10
3,Cn1c(Cl)cc(C(=O)Nc2cc(Br)cc3c2[C@H](c2cc(F)ccc2Cl)NC3=O)cc1=O [Compound I-2095],10 to 100
4,Nc1cc(C2NC(=O)c3cccc(NC(=O)c4cc(F)cc(C(F)(F)F)c4)c32)ccn1 (centres unmarked) [Compound I-828],10 to 100
5,O=C1NC(c2cc(F)ccc2Cl)c2c(NC(=O)C3CCCOC3)cc(-c3ccc4ncnn4c3)cc21 (centres unmarked) [Compound I-1814],10 to 100
6,O=C(Nc1cc(Br)cc2c1C(c1cc(F)ccc1Cl)NC2=O)c1cc(Cl)c(Cl)s1 (centres unmarked) [Compound I-1384],0.5 to 1
7,O=C1NC(c2cc(F)ccc2Cl)c2c(NC(=O)N3CCCc4ccccc4C3)cccc21 (centres unmarked) [Compound I-2305],10 to 100
8,"N#CCc1cc(NC(=O)N2C[C@](O)(C(F)(F)F)c3ccccc32)c2c(c1)C(=O)N[C@H]2c1cc(F)ccc1Cl (single isomer, unassigned) [Compound I-2604]",0.5 to 1
9,CC(=O)N1CCC(C(=O)Nc2cc(-c3ccc4ncnn4c3)cc3c2C(c2cc(F)ccc2Cl)NC3=O)CC1 (centres unmarked) [Compound I-1744],10 to 100
10,CC(C)(O)Cc1cc(F)cc(C(=O)Nc2cc(CC(C)(C)O)cc3c2C(c2cc(F)ccc2Cl)NC3=O)c1 (centres unmarked) [Compound I-696],10 to 100
11,CC1(C2NC(=O)c3cccc(NC(=O)c4cc(F)cc(C(F)(F)F)c4)c32)CCCCC1 (centres unmarked) [Compound I-1917],10 to 100
12,O=C1NC(c2cc(F)ccc2Cl)c2c(NC(=O)N3CC(C(F)(F)F)Nc4ccccc43)cccc21 (centres unmarked) [Compound I-2339],10 to 100
13,"O=C1N[C@H](c2cc(F)ccc2Cl)c2c(NC(=O)[C@H]3C[C@H](O)C[C@@H](C(F)(F)F)C3)cccc21 (single isomer, unassigned) [Compound I-2178]",10 to 100
14,COc1cccc(-c2cccc3c2C(c2ccccc2C)NC3=O)n1 (centres unmarked) [Compound I-14],10 to 100
15,O=C1NC(c2cc(F)ccc2Cl)c2c(NC(=O)C3CCCc4ccccc4C3)cccc21 (mixture of isomers) [Compound I-2375],10 to 100
16,O=C1NC(c2cc(F)ccc2Cl)c2c1cc(-c1ccc3ncnn3c1)cc2-n1ccc2c(F)cc(C(F)(F)F)cc2c1=O (centres unmarked) [Compound I-2016],1 to 10

row,SMILES,IC50 [µM]
1,O=C(Nc1cc(Br)cc2c(=O)[nH]n(-c3cc(F)ccc3Cl)c12)c1cc(F)cc(C(F)(F)F)c1 [Compound I-752],1 to 10
2,O=C1NC(c2cc(F)ccc2Cl)c2c1cc(-c1cnn(C(F)F)c1)cc2-c1nc2cc(C(F)(F)F)cc(F)c2[nH]1 (centres unmarked) [Compound I-2048],1 to 10
3,O=C1NC(c2cc(F)ccc2Cl)c2c1cc(-c1ccc3ncnn3c1)cc2N1CCn2c(nnc2C(F)(F)F)C1 (centres unmarked) [Compound I-2040],10 to 100
4,Nc1nc(NC(=O)c2cc(F)cc(C(F)(F)F)c2)c2c(n1)C(=O)NC2c1ccccc1Cl (centres unmarked) [Compound I-184],0.5 to 1
5,"O=C1N[C@H](c2cc(F)ccc2Cl)c2c(NC(=O)N3C[C@](O)(C(F)(F)F)c4cc(F)ccc43)cc(N3CCCC3=O)cc21 (single isomer, unassigned) [Compound I-2666]",1 to 10
6,O=C1N[C@@H](c2ccccc2Cl)c2c(NC(=O)c3csc4ccccc34)ccnc21 [Compound I-32],1 to 10
7,"N#CCc1cc(NC(=O)N2C[C@@](O)(C(F)F)c3cc(F)ccc32)c2c(c1)C(=O)N[C@@H]2c1cc(F)ccc1Cl (single isomer, unassigned) [Compound I-2600]",0.5 to 1
8,Cc1ccccc1C1NC(=O)c2c(N(C)C)ncc(NC(=O)c3nsc4ccccc34)c21 (centres unmarked) [Compound I-143],0.1 to 0.5
9,O=C1NC(c2cc(F)ccc2Cl)c2c(NC(=O)N3CCOC(C(F)(F)F)C3)cc(Br)cc21 (centres unmarked) [Compound I-1810],1 to 10
10,CC(C(CO)CC(=O)Nc1cccc2c1C(c1cc(F)ccc1Cl)NC2=O)C(F)(F)F (mixture of isomers) [Compound I-2197],10 to 100
11,O=C1NC(c2cc(F)ccc2Cl)c2c(NC(=O)C3(c4cccc(F)c4)CC3)cc(Br)cc21 (centres unmarked) [Compound I-557],1 to 10
12,"C[C@]1(C(=O)Nc2cc(Br)cc3c2[C@H](c2cc(F)ccc2Cl)NC3=O)CCC[C@@H](C(F)(F)F)C1 (single isomer, unassigned) [Compound I-2263]",1 to 10
13,O=C1NC(c2cc(F)ccc2Cl)c2c(NC(=O)N3CCCC(F)(F)C3)cc(Br)cc21 (centres unmarked) [Compound I-544],1 to 10
14,O=C(Nc1cc(-c2cn[nH]c2)nc2c1[C@@H](c1cc(F)ccc1Cl)NC2=O)c1cc(F)cc(Cl)c1 [Compound I-195],1 to 10
15,O=C1NC(c2cc(F)ccc2Cl)c2c(Nc3nccc4ccccc34)cc(Br)cc21 (centres unmarked) [Compound I-762],1 to 10

# Results, then the compound that gave them:
row,IC50 [µM],SMILES
1,≤ 0.1,O=C(Nc1cc(Cc2ccc3c(c2)CCNC3=O)cc2c1C(c1cc(F)ccc1Cl)NC2=O)c1cc(F)cc(C(F)(F)F)c1 (centres unmarked) [Compound I-1475]
2,≤ 0.1,O=C(Nc1cc(CO)cc2c1C(c1cc(F)ccc1Cl)NC2=O)c1cc(F)cc(C(F)(F)F)c1 (centres unmarked) [Compound I-185]
3,≤ 0.1,O=C(Nc1cc(-c2cnc3ocnc3c2)cc2c1C(c1cc(F)ccc1Cl)NC2=O)c1cc(F)cc(C(F)(F)F)c1 (centres unmarked) [Compound I-1544]
4,10 to 100,N#CCCN(C(=O)c1cc(F)cc(C(F)(F)F)c1)c1cc(O)cc2c1C(c1cc(F)ccc1Cl)NC2=O (centres unmarked) [Compound I-2251]
5,≤ 0.1,N#Cc1nc(-c2cc(NC(=O)c3cc(F)cc(C(F)(F)F)c3)c3c(c2)C(=O)NC3c2cc(F)ccc2Cl)cs1 (centres unmarked) [Compound I-1311]
6,≤ 0.1,CS(=O)(=O)c1ccccc1-c1cc(NC(=O)c2cc(F)cc(C(F)(F)F)c2)c2c(c1)C(=O)NC2c1cc(F)ccc1Cl (centres unmarked) [Compound I-1195]
7,1 to 10,O=C(Nc1cc(Br)cc2c1C(c1cc(F)ccc1Cl)NC2=O)c1cc(C(F)(F)F)cc(F)c1F (centres unmarked) [Compound I-908]
8,1 to 10,N#C/N=C(\Nc1ccc(F)cc1C(F)(F)F)Nc1cc(Br)cc2c1C(c1cc(F)ccc1Cl)NC2=O (centres unmarked) [Compound I-1502]
9,≤ 0.1,CC(C)(O)COc1cc(NC(=O)c2cc(F)cc(C(F)(F)F)c2)c2c(c1)C(=O)N[C@H]2c1cc(F)ccc1Cl [Compound I-740]
10,≤ 0.1,O=C(Nc1cc(Cl)cc2c1C(c1cc(F)ccc1Cl)NC2=O)c1cc(F)cc(C(F)(F)F)c1 (centres unmarked) [Compound I-688]
11,≤ 0.1,CCCCC(C)(O)c1cc(NC(=O)c2cc(F)cc(C(F)(F)F)c2)c2c(c1)C(=O)NC2c1cc(F)ccc1Cl (centres unmarked) [Compound I-1186]
12,≤ 0.1,O=C(Nc1cc(N2CCOCC2)nc2c1C(c1cc(F)ccc1Cl)NC2=O)c1cc(F)cc(C(F)(F)F)c1 (centres unmarked) [Compound I-358]
13,≤ 0.1,O=C(CO)Nc1cc(NC(=O)c2cc(F)cc(C(F)(F)F)c2)c2c(c1)C(=O)NC2c1cc(F)ccc1Cl (centres unmarked) [Compound I-345]
14,≤ 0.1,N#Cc1cnn(Cc2cc(NC(=O)c3cc(F)cc(C(F)(F)F)c3)c3c(c2)C(=O)NC3c2cc(F)ccc2Cl)c1 (centres unmarked) [Compound I-1588]
15,≤ 0.1,O=C(Nc1cc(-c2cnn(-c3ncc(F)cn3)c2)cc2c1C(c1cc(F)ccc1Cl)NC2=O)c1cc(F)cc(C(F)(F)F)c1 (centres unmarked) [Compound I-1616]
16,≤ 0.1,O=C(Nc1cc(-c2ccc3nncn3c2)cc2c1C(c1cc(F)ccc1Cl)NC2=O)c1cc(F)cc(C(F)(F)F)c1 (centres unmarked) [Compound I-821]

# Reference: patent US12581252B2, “Substituted pyrrolo[3,4-b]pyridines as PI3K-α inhibitors” (Relay Therapeutics, Inc., priority 2020, dated 2026)
